In the CheMixHub viscosity set:

Experiment: xn = mol fraction of the nth substance listed

Clc1cccc(Cl)c1 + CCNc1ccccc1
viscosity [mPa·s], 101 kPa
Details	303.15 K	308.15 K
x2 = 0.0725	1.021	0.954
x2 = 0.1256	1.069	0.996
x2 = 0.1956	1.134	1.051
x2 = 0.2687	1.2	1.108
x2 = 0.3369	1.258	1.157
x2 = 0.4056	1.315	1.205
x2 = 0.4856	1.38	1.259
x2 = 0.5598	1.437	1.308
x2 = 0.6235	1.485	1.347
x2 = 0.6925	1.536	1.389
x2 = 0.7759	1.594	1.436
x2 = 0.8596	1.651	1.482
x2 = 0.9125	1.687	1.511

O=C([O-])CC(O)(CC(=O)O)C(=O)O.[K+] + O
viscosity [mPa·s], 101 kPa
Details	293.15 K	298.15 K	303.15 K	308.15 K
x1 = 0.0032	1.074	0.954	0.853	0.766
x1 = 0.0089	1.237	1.089	0.97	0.876
x1 = 0.0177	1.419	1.253	1.117	1.002

COC(=O)CC(C)=O + CCCCOC(C)=O
viscosity [mPa·s], 101.33 kPa
Details	x1 = 0.1019	x1 = 0.2013	x1 = 0.3015	x1 = 0.4035	x1 = 0.5006	x1 = 0.6004	x1 = 0.7005	x1 = 0.8087	x1 = 0.8989
298.15 K	0.719	0.768	0.826	0.895	0.969	1.055	1.163	1.289	1.407
303.15 K	0.672	0.716	0.768	0.83	0.896	0.973	1.068	1.181	1.284
308.15 K	0.629	0.669	0.717	0.774	0.832	0.901	0.987	1.085	1.179

OCC(O)CO + CCCCO
viscosity [mPa·s], 101.33 kPa
Details	x1 = 0.1003	x1 = 0.1997	x1 = 0.3003	x1 = 0.4007	x1 = 0.4996	x1 = 0.5995	x1 = 0.6994	x1 = 0.8004	x1 = 0.8999
298.15 K	4.05	6.403	10.09	18.38	37.92	83.21	180.7	338.3	541.7
308.15 K	3.014	4.518	6.896	11.9	21.63	44.15	82.38	144.5	231.5
318.15 K	2.324	3.356	4.9	8.136	13.77	24.56	41.13	68.13	105.3

CCCCCCCCCCCC(=O)OC + CCCCCCCCCCCC
viscosity [mPa·s], 100 kPa
Details	x2 = 0.0991	x2 = 0.2004	x2 = 0.3006	x2 = 0.3991	x2 = 0.5003	x2 = 0.6	x2 = 0.6997	x2 = 0.8005	x2 = 0.8995
293.15 K	2.863	2.631	2.435	2.242	2.09	1.931	1.789	1.671	1.564
298.15 K	2.554	2.356	2.185	2.009	1.883	1.749	1.624	1.514	1.425
303.15 K	2.296	2.126	1.975	1.83	1.71	1.595	1.485	1.391	1.308
308.15 K	2.081	1.93	1.797	1.671	1.563	1.461	1.363	1.28	1.205
313.15 K	1.896	1.763	1.644	1.526	1.436	1.344	1.257	1.183	1.116
318.15 K	1.735	1.616	1.511	1.402	1.318	1.243	1.164	1.098	1.037
323.15 K	1.594	1.489	1.395	1.299	1.223	1.153	1.082	1.022	0.967

COc1ccc(C=O)cc1 + COCCO
viscosity [mPa·s], 101 kPa
Details	x1 = 0.0753	x1 = 0.1549	x1 = 0.2391	x1 = 0.3283	x1 = 0.4231	x1 = 0.5238	x1 = 0.6311	x1 = 0.7457	x1 = 0.8684
303.15 K	1.502	1.518	1.567	1.656	1.793	1.984	2.242	2.577	3.006
308.15 K	1.463	1.488	1.537	1.614	1.723	1.87	2.062	2.308	2.617
313.15 K	1.214	1.258	1.32	1.404	1.513	1.651	1.824	2.037	2.298
318.15 K	1.129	1.175	1.236	1.312	1.408	1.525	1.669	1.843	2.054

CCOc1ccccc1 + CC1COC(=O)O1
viscosity [mPa·s], 101.33 kPa
Details	x2 = 0.1218	x2 = 0.2226	x2 = 0.3591	x2 = 0.4874	x2 = 0.5257	x2 = 0.5674	x2 = 0.6723	x2 = 0.7807	x2 = 0.8898	x2 = 0.9431
293.15 K	1.338	1.436	1.586	1.739	1.789	1.837	1.985	2.17	2.405	2.544
303.15 K	1.119	1.202	1.316	1.44	1.474	1.516	1.63	1.773	1.96	2.078
313.15 K	0.945	1.013	1.11	1.215	1.246	1.278	1.373	1.495	1.651	1.742

CCCCCCCCCCCC(=O)OC + C1C[C@@H]2[C@H]3CC[C@H](C3)[C@@H]2C1
viscosity [mPa·s], 100 kPa
Details	x2 = 0.1012	x2 = 0.2004	x2 = 0.3001	x2 = 0.4004	x2 = 0.5021	x2 = 0.6003	x2 = 0.7003	x2 = 0.8001	x2 = 0.8991
293.15 K	3.062	3.012	2.973	2.927	2.896	2.874	2.864	2.877	2.909
298.15 K	2.73	2.69	2.659	2.625	2.599	2.585	2.58	2.595	2.628
303.15 K	2.454	2.419	2.397	2.369	2.349	2.339	2.338	2.356	2.388
308.15 K	2.218	2.191	2.173	2.152	2.134	2.129	2.13	2.149	2.183
313.15 K	2.018	1.994	1.98	1.963	1.951	1.946	1.949	1.969	2.001
318.15 K	1.844	1.824	1.813	1.799	1.789	1.787	1.791	1.811	1.841
323.15 K	1.693	1.676	1.668	1.656	1.647	1.647	1.652	1.672	1.702

CCOC(C)=O + CO
viscosity [mPa·s]
Details	293.15 K	298.15 K	303.15 K	308.15 K	313.15 K	318.15 K	323.15 K
100 kPa, x2 = 0.4071	0.4216	0.4015	0.384	0.365	0.3527	0.3431	0.3216
100 kPa, x2 = 0.6468	0.4612	0.4319	0.4112	0.3868	0.3681	0.3501	0.3336
100 kPa, x2 = 0.8048	0.499	0.4697	0.4463	0.4182	0.3988	0.3758	0.3564
100 kPa, x2 = 0.9168	0.5454	0.5164	0.4893	0.4559	0.4327	0.4083	0.3858
101 kPa, x1 = 0.065	0.549	–	0.477	–	0.424	–	0.378
101 kPa, x1 = 0.115	0.528	–	0.462	–	0.413	–	0.368
101 kPa, x1 = 0.306	0.475	–	0.422	–	0.377	–	0.342
101 kPa, x1 = 0.321	0.471	–	0.418	–	0.376	–	0.341
101 kPa, x1 = 0.445	–	–	–	–	0.364	–	0.333
101 kPa, x1 = 0.598	0.444	–	0.397	–	0.36	–	0.328
101 kPa, x1 = 0.797	–	–	–	–	0.362	–	0.332

COc1ccc(C=O)cc1 + CCOCCO
viscosity [mPa·s], 101 kPa
Details	x1 = 0.0825	x1 = 0.1683	x1 = 0.2576	x1 = 0.3506	x1 = 0.4474	x1 = 0.5484	x1 = 0.6539	x1 = 0.7641	x1 = 0.8793
303.15 K	1.521	1.534	1.586	1.682	1.828	2.03	2.294	2.629	3.044
308.15 K	1.459	1.483	1.535	1.618	1.735	1.891	2.09	2.338	2.641
313.15 K	1.33	1.371	1.431	1.512	1.617	1.749	1.912	2.108	2.342
318.15 K	1.251	1.294	1.351	1.423	1.513	1.623	1.755	1.911	2.096

COC(=O)CC(C)=O + CCCCCCCO
viscosity [mPa·s], 101.33 kPa
Details	x1 = 0.1016	x1 = 0.2071	x1 = 0.3081	x1 = 0.4096	x1 = 0.5099	x1 = 0.6072	x1 = 0.7071	x1 = 0.8059	x1 = 0.9033
298.15 K	4.066	3.167	2.651	2.278	2.012	1.842	1.663	1.546	1.512
303.15 K	3.465	2.734	2.298	1.981	1.754	1.624	1.485	1.393	1.366
308.15 K	2.97	2.357	1.998	1.733	1.545	1.452	1.337	1.264	1.245

[O-][Cl+3]([O-])([O-])O[Cl+3]([O-])([O-])[O-] + O
293.15 K, 101.33 kPa
Details	viscosity [mPa·s]
x1 = 0.428	1.179
x1 = 0.46	0.949
x1 = 0.474	0.893
x1 = 0.491	0.821
x1 = 0.499	0.796
x1 = 0.51	0.762
x1 = 0.519	0.754
x1 = 0.602	0.726
x1 = 0.711	0.714
x1 = 0.787	0.713
x1 = 0.818	0.709
x1 = 0.906	0.708

CCOc1ccccc1 + CCCCCO
viscosity [mPa·s], 101.3 kPa
Details	x1 = 0.0998	x1 = 0.1989	x1 = 0.3012	x1 = 0.3999	x1 = 0.5004	x1 = 0.6001	x1 = 0.7013	x1 = 0.7997	x1 = 0.9021
293.15 K	3.281	2.682	2.196	1.866	1.631	1.494	1.42	1.379	1.371
298.15 K	2.882	2.372	1.953	1.646	1.423	1.299	1.245	1.232	1.228
308.15 K	2.152	1.785	1.486	1.256	1.121	1.032	0.9978	0.9914	0.9892
318.15 K	1.691	1.381	1.155	1.01	0.9175	0.8405	0.8318	0.8317	0.8269
